This is an account of results in patent publication US20110281802A1, “COMPOSITION FOR TREATMENT AND PREVENTION OF HAIR LOSS AND PREMATURE GRAYING OF HAIR” (Immudiagnostik AG, priority 2007, published 2011).

One experiment deals with Prolactin. In words: Immunohistochemical staining of treated hair follicles for prolactin (assay #6). It counts as cell-based, human. The conditions noted are these: 10 pg/mL and 100 pg/mL, few hair follicles, very preliminary. The protocol:
The staining was performed according to the following protocol:
A. Prolactin: Pre-treatment with 0.5% Triton X (Fluka, Sigma Aldrich, Taufkirchen, Germany; CatNo 93420) in TBS for 10 minutes at room temperature, three washings in TBS for five minutes each, treatment with 0.6% H2O2 in methanol three times for 15 minutes, washes in TBS. Pre-incubation with 10% rabbit serum (Dako Cytomation, CatNo X0902) in TBS with 3% BSA for 20 minutes, incubation with primary antibody (goat anti-human prolactin, Santa Cruz Biotechnology, Inc., Santa Cruz, Calif., USA; CatNo SC-7805), dilution 1:100 in TBS+2% rabbit serum (Dako Cytomation, CatNo X0902) overnight at 4° C. Thereafter washes in TBS. Incubation with secondary antibody (rabbit anti-goat-biotinylated, DAKO Cytomation, CatNo E0466) diluted to 1:200 with 2% rabbit serum in TBS for 45 minutes at room temperature. Treatment with Avidin Biotin Complex-alkaline phosphatase (Vector Laboratories, Burlingame, Calif., USA; CatNo AK-5000) for 30 minutes, then washing in TBS. Thereafter treatment with Fast Red Tablets (Sigma-Aldrich, CatNo F4648-50SET) for 6 minutes. Counterstaining with Mayer's Haemalaun (Chroma Muenster, CatNo 2E038) and mounting with Aquamount (DAKO Cytomation, CatNo S3025).
In both assays human pituitary gland was set as positive control and negative control were hair follicles treated without the primary antibody.

Another experiment has as its system TSH. As to the kind of experiment: Immunohistochemical staining of treated hair follicles for TSH (assay #6). It counts as cell-based, human. The conditions noted are these: few slides only. Here is the method: Assay #6—Stimulation of expression of pituitary hormones by Thymulin (PRL+TSH): Hair follicles from the occipital area of a person were cultured for 9 days and treated with culture medium and thymulin 10 pg/mL (human thymulin, No A9530AG.1; Immundiagnostik AG, Bensheim, Germany) as described above, then snap frozen and sectioned. The staining was performed according to the following protocol:
B. TSH: Pre-incubation with 10% goat serum (Dako Cytomation, CatNo 50114121) in TBS for 20 minutes, then incubation with primary antibody (mouse anti-human TSH, Dianova, Hamburg, Germany, CatNo DLN 07830), dilution 1:20 in TBS+2% goat serum (Dako Cytomation, CatNo 50114121) overnight at 4° C. Thereafter washing in TBS. Incubation with secondary antibody (goat anti-mouse-biotinylated, Beckman Coulter, Inc. Fullerton, Calif., USA, CatNo IM0816) diluted to 1:200 with 2% goat serum in TBS for 45 minutes at room temperature. Treatment with avidin/biotin-complex coupled with alkaline phosphatase (Vector Laboratories, Burlingame, Calif., USA; CatNo AK-5000) for 30 minutes, then washes in TBS. Thereafter treatment with Fast Red Tablets (Sigma-Aldrich, CatNo F4648-50SET) for 6 minutes. Counterstaining with Mayer's Haemalaun (Chroma Muenster, CatNo 2E038) and mounting with Aquamount (DAKO Cytomation, CatNo S3025). […]

Experiment [1] relates to human anagen VI hair follicles. In words: Melanogenesis, Fontana Masson staining measured by Image J, assay #1. It counts as cell-based. The conditions noted are these: for Mean relative darkening of the groups (measured by image J), Mean: 9 days, dark=small index number, light=high index number. The protocol: Assay #1 Culture HF429: Hair follicles were grown in the wells of a microtiter plate (3 follicles per well) and treated for 9 days with culture medium and test substance as indicated in FIG. 1. Thereafter, elongation, melanogenesis and hair cycle stage were determined.
Fontana Masson staining was performed at the end of the culture period and photos taken of snap frozen sections. The photos were analysed (Image J, public domain, developed at the National Institutes of Health, USA) by measuring the density of two squares, consisting of 150×150 dots, placed over the darkest areas on both sides of the dermal papilla. For Fontana-Masson staining, fixed sections were treated in darkness for 40 minutes with a solution containing 10% silver nitrate (Merck & Co., Inc., Whitehouse Station, N.J., USA; CatNo 1.01512.0100), following by a development in solution containing 5% sodium thiosulphate (Merck & Co., Inc.; CatNo 1.06512.2500) for 1 minute and multiple washings in distilled water for 3 minutes. Counterstaining with 0.5% Neutralrot (Chroma Muenster, Germany, CatNo 2E038). Then dehydration in xylol and covering with Eukitt (O. Kindler GmbH, Freiburg, Germany; CatNo E115).
All data were analysed by two-tailed unpaired t-test (SPSS analysis software SPSS Inc., Chicago, USA). For determination of elongation, two outliers at top and bottom end of value range were eliminated; with the measurement of melanogenesis one outlier at both, top and bottom range, was eliminated. Results are given as mean value and standard error of measurement (SEM).
Micro-dissected anagen VI hair follicles were treated as above described. At the end of the culture period Fontana Masson staining was performed and photos were taken of the snap frozen sections. The pictures were analysed by measuring the darkness (brightness) of two squares, consisting of 150×150 dots, placed over the darkest areas on both sides of the dermal papilla (dark=small index number, light=high index number). The shading of the different groups was compared to each other and the results were analysed using Student's t-test. The results are shown below in Table 5 and FIG. 7.

In the case of thymulin, the “Immunoreactivity for Prolactin in treated hair follicles (in words)” value in the experiment on Prolactin was “some additional staining in the IRS”. The “Immunoreactivity for TSH, treated versus control hair follicles (in words)” value in the experiment with TSH is given as “Did not Show any Differences”. Besides, in experiment [1] (10 pg/mL), the “Fontana Masson staining (melanin) compared with control group (in words)” value was “significantly more staining” and the “Mean relative darkening of the groups (measured by image J), Mean” value (shortened to “Mean relative darkening of the groups”) worked out at 75.73. The “Mean relative darkening of the groups” value in experiment [1] (100 pg/mL) is on record as 90.48.
For Thymosin beta-4 [TB4], the “Mean relative darkening of the groups” value in experiment [1] (100 ng/mL) amounted to 101.04; in experiment [1] (1000 ng/mL), 85.52. For the same substance, the “Influence on HF melanogenesis (in words)” value in experiment [1] (quantitative Masson-Fontana histochemistry) is given as “did not influence HF melanogenesis”.
